Results as given in ChEMBL document CHEMBL3352183, “Borrelidin B: isolation, biological activity, and implications for nitrile biosynthesis” (J Nat Prod, 2014).
Active and inactive are the calls of the source. The calls are words filed in the database; no cut-off is given here.

What was measured:
[1] = target: T1, Threonine--tRNA ligase, mitochondrial (Homo sapiens) (UniProt Q9BW92); assay: Inhibition of threonyl tRNA synthetase (unknown origin) assessed as depletion of tRNAs at 50 uM by SToPs assay
T1 sequence (whole entry): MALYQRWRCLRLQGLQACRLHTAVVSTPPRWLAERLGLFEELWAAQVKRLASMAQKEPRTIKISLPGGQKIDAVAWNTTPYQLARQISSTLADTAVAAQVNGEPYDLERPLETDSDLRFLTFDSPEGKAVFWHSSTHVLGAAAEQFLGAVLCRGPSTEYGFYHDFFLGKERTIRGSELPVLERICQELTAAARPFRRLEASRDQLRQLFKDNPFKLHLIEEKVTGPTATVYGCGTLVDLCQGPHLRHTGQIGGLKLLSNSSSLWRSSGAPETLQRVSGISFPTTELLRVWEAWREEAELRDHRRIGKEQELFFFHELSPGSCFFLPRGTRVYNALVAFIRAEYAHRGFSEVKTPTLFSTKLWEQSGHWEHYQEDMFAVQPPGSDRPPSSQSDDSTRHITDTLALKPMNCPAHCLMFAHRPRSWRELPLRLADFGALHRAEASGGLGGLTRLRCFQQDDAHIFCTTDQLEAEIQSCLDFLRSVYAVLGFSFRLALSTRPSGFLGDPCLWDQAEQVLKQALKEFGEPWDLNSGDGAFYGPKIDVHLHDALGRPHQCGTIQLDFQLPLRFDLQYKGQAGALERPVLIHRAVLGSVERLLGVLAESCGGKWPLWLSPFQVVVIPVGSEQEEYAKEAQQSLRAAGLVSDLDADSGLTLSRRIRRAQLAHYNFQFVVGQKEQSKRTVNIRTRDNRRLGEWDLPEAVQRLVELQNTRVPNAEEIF

HeLa = assay: Mitotic arrest in human HeLa cells assessed as accumulation at […] at 0.98 to 30 uM using pHH3 staining-based fluorescent assay; assay type: functional, cell-based
NCI-N87 = assay: Growth inhibition of human NCI-N87 cells; assay type: functional, cell-based
MDA-MB-361 = assay: Growth inhibition of human MDA-MB-361 cells; assay type: functional, cell-based
HT-29 = assay: Growth inhibition of human HT-29 cells; assay type: functional, cell-based

| inhibition [1] | Compound | Activity (HeLa) | IC50 (NCI-N87) [µM] | IC50 (MDA-MB-361) [µM] | IC50 (HT-29) [µM] |
| --- | --- | --- | --- | --- | --- |
| inactive | CC(=O)NC/C1=C/C=C/C[C@@H]([C@@H]2CCC[C@H]2C(=O)O)OC(=O)C[C@H](O)[C@@H](C)C[C@@H](C)C[C@@H](C)C[C@H](C)[C@H]1O | inactive |  |  |  |
|  | C[C@@H]1C[C@H](C)C[C@H](C)[C@@H](O)CC(=O)O[C@H]([C@@H]2CCC[C@H]2C(=O)O)C/C=C/C=C(/C#N)[C@H](O)[C@@H](C)C1 [BORRELIDIN] |  | 0.05 | 0.42 | 0.92 |
| Active | C[C@@H]1C[C@H](C)C[C@H](C)[C@@H](O)CC(=O)O[C@H]([C@@H]2CCC[C@H]2C(=O)O)C/C=C/C=C(/CN)[C@H](O)[C@@H](C)C1 | Dose-dependent effect | 1.3 | 2.2 | 2 |
